“Also recorded” adds a separate entry of the source.
Legend:
EGFR, ErbB2, and ErbB3 = assay: Western blot of ErbB family RTK glycosylation, phosphorylation and protein levels in glioma cells; assay type: cell-based
Procedure: In this study, the D54, SKMG3, U251, T98G and 42-MG glioma cell lines were used. The source of D54, SKMG3 and U251 cells has been described previously (Contessa at al., Clin Cancer Res., 16:3205-14 (2010), Lopez et al., Int J Radiat Oncol Biol Phys., 69:214-20 (2007)). The 42-MG and T98G cells were provided by Todd Waldman (Georgetown University) and Dr. Ranjit Bindra (Yale University), respectively. The cells were cultured in DMEM/F12 (D54 and T98G), DMEM (42-MG and U251) or RPMI 1640 (SKMG3)+10% FBS supplemented with penicillin and streptomycin (Gibco, Life Technologies, Grand Island, N.Y., US) in a humidified incubator with 5% CO2, and they were kept in culture no more than 6 months after resuscitation from the original stocks. […] Mycoplasma cell culture contamination was routinely checked and ruled out using a biochemical test (MycoAlert Mycoplasma Detection Kit from Lonza, Rockland, Me. USA). Tunicamycin was purchased from Calbiochem/EMD-millipore (Burlington, Mass., USA). Cetuximab and Erlotinib were purchased at Selleck Chemicals LLC (Houston, Tex., USA). Luciferin was supplied by Promega (Madison, Wis. USA). For in vitro experiments, radiation (XRT) was administered at room temperature using a Precision X-ray 320-kV orthovoltage unit at a dose rate of 2 Gy/45 seconds (PXI X-Ray Systems) with 2 mm aluminum filter. For in vivo studies, radiation was administered at room temperature using a Precision X-ray 250-kV orthovoltage unit at a dose rate of 6.42 Gy/min (PXI X-Ray Systems) with 2 mm aluminum filter. Quality Assurance for both irradiators was performed monthly using a P.T.W. 0.3 cm^3 Ionization Chamber calibrated to NIST standards and quarterly dosimetry using thermoluminescent dosimeter (TLD)-based or ferrous sulfate-based dosimeters.

D54 cells = assay: Radiation clonogenic survival assay; assay type: cell-based
Procedure: (§1) Radiation (XRT) doses of either 0, 2, 4, or 6 Gy were delivered with a Precision X-ray 320-kV orthovoltage unit at a dose rate of 2 Gy/45 seconds (PXI X-Ray Systems). Twenty-four hours following XRT cells were washed, trypsinized, and re-plated in triplicate wells to determine clonogenic survival. […] Growth rates were determined by CellTiter 96 Non-Radioactive Cell Proliferation Assay (Promega; Madison, Wis., USA) according to the manufacturer's directions. For each experiment one thousand cells were seeded in triplicate wells in 96-wells plates. The following day, cell cultures were treated with NGI-1 (1 μM), Temozolomide (TMZ, 10 μM), Etoposide (VP-16, 0.1 μM) or combinations for 5 days. Absorbance at 540 nm was measured using the spectrophotometric reading (BioTek Synergy 2; Winooski, Vt. USA).

T98G cells = assay: Radiation clonogenic survival assay; assay type: cell-based; settings: 10 μM NGI-1
Procedure: as §1

U251 cells = assay: Radiation clonogenic survival assay; assay type: cell-based; settings: 10 μM NGI-1
Procedure: as §1

[1] = tested on: D54, SKMG3, T98G or U251 cells; assay: Glioma cell proliferation (CellTiter 96), NGI-1 alone or with cytotoxic chemotherapy; assay type: cell-based
Procedure: as §1

SKMG3 cells = assay: Cell cycle distribution by flow cytometry; assay type: cell-based, human
Procedure: (§2) Cell cycle distribution was determined following treatment with vehicle, radiation and/or 10 uM NGI-1. Cells were trypsinized and centrifuged, washed once with ice-cold PBS, fixed with ice-cold 70% ethanol and stored overnight at −20° C. After washing twice with PBS, they were incubated for 30 minutes at room temperature in 200 μL of Guava Cell Cycle Reagent (Guava Technologies). Cytofluorometric acquisitions were performed on a LSRII cytometer (BD Biosciences). First-line analysis was performed with FlowJo software, upon gating of the events characterized by normal forward and side scatter parameters and discrimination of doublets in a FSC-A vs. FSC-H bivariate plot. Approximately 50,000 cells were analyzed per experiment.

SKMG3-CD8-EGFR cells = assay: Cell cycle distribution by flow cytometry; assay type: cell-based, human; settings: 10 μM NGI-1, 4 Gy
Procedure: as §2
The CD8 cDNA was a gift from Paula Kavathas (Yale University). The CD8-EGFR was constructed according to a strategy that generated a constitutively active IGF-1R (24). The extracellular domain of CD8 was PCR amplified with a 5′ XbaI and 3′ SalI restriction site and cloned in-frame with the intracellular kinase domain of EGFR using the pDCB5-EGFR plasmid. SKMG3-CD8-EGFR cells were generated by Lipofectamine (Life Technologies) transfection of the plasmid followed by selection with 500 μg/ml G418. Expression of CD8-EGFR was validated by western blot analysis of the wild type and CD8-EGFR.

EGFR = biological target: T1, EGFR (Homo sapiens, UniProt P00533, DEL746-750); assay type: cell-based; settings: HCC827-GR cells
T1 construct: endogenous in cells; host or cells: HCC827-GR NSCLC cells (MET amplified)
Procedure: Immunoprecipitation of EGFR was performed on whole cell lysate of intact HCC827 and HCC827-GR cell monolayers using Protein A magnetic beads (Cell Signaling) to isolate EGFR coupled to rabbit anti-EGFR (1:100) antibody from Cell Signaling (Danvers, Mass., USA). Equilibrated Protein A magnetic beads equilibrated with a whole cell lysate were used as negative controls for non-specific protein binding. […] The nitrocellulose-bound primary antibodies, were detected with anti-rabbit IgG horseradish peroxidase-linked antibody or anti-mouse IgG horseradish peroxidase-linked antibody (EMD Millipore; Temecula, Calif. USA), and were detected by the enhanced chemoluminescence staining ECL (GE Healthcare-Amersham Pharmacia, Buckinghamshire, U.K.).

PC9-ERLucT cells = assay: ER-LucT glycosylation reporter luciferase assay in vitro; assay type: cell-based; settings: after 24 h, equivalent concentrations of NGI-1 dissolved in DMSO or via NP
From the text: To test the hypothesis that NGI-1 could enhance TKI therapy in EGFR mutant and TKI resistant NSCLC, a NGI-1 nanoparticle (NGI-NP) formulation was developed by nanoprecipitation of a NGI-1 PEI complex. All nanoparticle preparations were confirmed by DLS and the average particle size was 120±10 nm. To assess the activity of the NGI-1 NPs a PC9 cell line with stable expression of the ER-LucT glycosylation reporter (Contessa at al., Clin Cancer Res., 16(12):3205-14 (2010)), a luciferase engineered to be expressed in the endoplasmic reticulum with N-linked glycosylation sites, was established. Under normal cell conditions glycosylation of the luciferase blocks activity and luminescence. However, under conditions of decreased glycosylation luciferase activity is restored with a measurable increase in luciferase activity. Equivalent concentrations of NGI-1, either dissolved in DMSO or via NP, activated luminescence˜6 fold after 24 h in these PC9-ERLucT cells in vitro (FIG. 13A).

Solubility = assay type: physicochemical
[2] = tested on: non-transformed cell lines, primary human dermal fibroblasts, and neural progenitor cells; settings: Lopez-Sambrooks 2016, Hafirassou 2017, Puschnik 2017; cited from earlier work

Cc1cnc(NC(=O)c2cc(S(=O)(=O)N(C)C)ccc2N2CCCC2)s1 [NGI-1, 5-(dimethylsulfamoyl)-N-(5-methyl-1,3-thiazol-2-yl)-2-(pyrrolidin-1-yl)benzamide]
ErbB3 protein levels (EGFR, ErbB2, and ErbB3; D54 and SKMG3 cell lines): reduction of ErbB3 protein levels | ErbB2 protein levels (EGFR, ErbB2, and ErbB3; SKMG3): reduction in ErbB2 protein levels | EGFR protein levels (as cause of reduced EGFR phosphorylation) (EGFR, ErbB2, and ErbB3; SKMG3 and D54 cell lines): not caused by decreases in EGFR protein levels | glycosylation of EGFR, ErbB2, and ErbB3 (protein gel mobility on western blot) (EGFR, ErbB2, and ErbB3; SKMG3 and D54 cell lines): reduced glycosylation | phosphorylation of EGFR, ErbB2, and ErbB3 (EGFR, ErbB2, and ErbB3; SKMG3 and D54 cell lines): reduced | dose enhancement factor (DEF) at a surviving fraction of 0.4 (D54 cells; 10 μM NGI-1): 1.3 | survival fraction at 2 Gy (SF2Gy) (D54 cells; 10 μM NGI-1 48 hours before radiation, 69% without NGI-1): 51% | effect on SF2Gy (T98G cells): unaffected | effect on SF2Gy (U251 cells): unaffected | glioma cell line proliferation, dose response ([1]; D54, SKMG3, U251 and T98G, 5 days of drug exposure): sensitive | proliferation, NGI-1 combined with TMZ or VP-16 ([1]; D54 and SKMG3, NGI-1 1 μM with TMZ 10 μM or VP-16 0.1 μM, 5 days, not synergistic): further reduced glioma cell proliferation | enhancement of the anti-proliferative effects of TMZ or VP-16 ([1]; T98G or U251 cells, NGI-1 1 μM, 5 days): did not enhance | cells in G1 (G1 arrest) (SKMG3 cells; SKMG3, 48 hours of 10 uM NGI-1, control 69%): 78% | cells in G1 six hours after 4 Gy (SKMG3 cells; SKMG-3, NGI-1 + 4 Gy, 56% without NGI-1): 72% | G1 cell cycle arrest caused by NGI-1, alone and after exposure to radiation (SKMG3-CD8-EGFR cells): eliminated the G1 cell cycle arrest | EGFR phosphorylation (EGFR): significantly reduced | activation of luminescence (luciferase activity) (PC9-ERLucT cells): ~6 fold | solubility (Solubility): low solubility; also recorded: solubility remains a significant challenge | toxicity [2]: no significant toxicity
